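Grown in 96-well plates, cells were treated for 48 hours with each compound at five concentrations. Insufficient inhibition: endpoint recorded as highest concentration tested. GI50 is the concentration that inhibits growth by half.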 Active and inactive are the calls of the source. Cut-off read from the data, not from the text of the source: active = GI50 up to about 1.1 µM and inactive = higher.
What was measured:
Assay in all cases: NCI anticancer screen, dose series, 48 h
OVCAR-3 = system: OVCAR-3
LOX IMVI = system: LOX IMVI
SK-MEL-5 = system: SK-MEL-5
COLO 205 = system: COLO 205
OVCAR-5 = system: OVCAR-5
PC-3 = system: PC-3
SNB-19 = system: SNB-19
SK-MEL-2 = system: SK-MEL-2
CCRF-CEM = system: CCRF-CEM
Hs-578T = system: Hs-578T
ACHN = system: ACHN
HCT-15 = system: HCT-15
OVCAR-4 = system: OVCAR-4
HT-29 = system: HT-29
SN12C = system: SN12C
SK-OV-3 = system: SK-OV-3
IGROV-1 = system: IGROV-1
MOLT-4 = system: MOLT-4
HCC 2998 = system: HCC 2998

Row | SMILES | GI50 (OVCAR-3) | GI50 (LOX IMVI) | GI50 (SK-MEL-5) | GI50 (COLO 205) | GI50 (OVCAR-5) | GI50 (PC-3) | GI50 (SNB-19) | GI50 (SK-MEL-2) | GI50 (CCRF-CEM) | GI50 (Hs-578T) | GI50 (ACHN) | GI50 (HCT-15) [µM] | GI50 (OVCAR-4) | GI50 (HT-29) | GI50 (SN12C) | GI50 (SK-OV-3) | GI50 (IGROV-1) | GI50 (MOLT-4) | GI50 (HCC 2998)
1 | C[C@]12CC[C@H]3[C@@H](CCC4=CC(=O)CC[C@@H]43)[C@@H]1CC[C@@H]2OC1(O)C(=O)c2ccccc2C1=O | 39.4 µM (inactive) | 37.5 µM (inactive) | 19.5 µM (inactive) | 24.4 µM (inactive) | 27.6 µM (inactive) | 60.5 µM (inactive) | > 100 µM (inactive) | 75.9 µM (inactive) | 31.4 µM (inactive) | 11.2 µM (inactive) | 27.7 µM (inactive) | 37.8 | 91.4 µM (inactive) | 35.1 µM (inactive) | 17 µM (inactive) | > 100 µM (inactive) | 69.7 µM (inactive) | 33.3 µM (inactive) | > 100 µM (inactive)
2 | Cc1n[nH]c(=O)c2cc(-c3ccccc3)[nH]c12 | 54.1 µM (inactive) | 58.7 µM (inactive) | 41.6 µM (inactive) | 27.7 µM (inactive) | 50.7 µM (inactive) | 34.5 µM (inactive) | > 100 µM (inactive) | 31 µM (inactive) | 48.2 µM (inactive) | 26.4 µM (inactive) | 32.8 µM (inactive) | 54.2 | 52.6 µM (inactive) | 33.2 µM (inactive) | 75.3 µM (inactive) | > 100 µM (inactive) | 70.6 µM (inactive) | 17.6 µM (inactive) | 44.3 µM (inactive)
3 | O=C(CCN1CCCC1)c1ccc(Oc2ccc(F)cc2)cc1 | 30.9 µM (inactive) | 30.5 µM (inactive) | 44.8 µM (inactive) | 23 µM (inactive) | > 100 µM (inactive) | 38.5 µM (inactive) | > 100 µM (inactive) | > 100 µM (inactive) | 26.5 µM (inactive) | 30.1 µM (inactive) | > 100 µM (inactive) | 41.3 | > 100 µM (inactive) | 32.5 µM (inactive) | 97.1 µM (inactive) | > 100 µM (inactive) | 33 µM (inactive) | 24.4 µM (inactive) | 45.1 µM (inactive)
4 | CC(C)C1OC23CCCCC2C(C#N)(C#N)C1(C#N)C(=N)O3 (stereo unspecified) | 22.7 µM (inactive) | 20.1 µM (inactive) | 16.8 µM (inactive) | 14.6 µM (inactive) | 20.1 µM (inactive) | 30.4 µM (inactive) | 34.3 µM (inactive) | 26 µM (inactive) | 5.56 µM (inactive) | 16.4 µM (inactive) | 33.1 µM (inactive) | 9.46 |  | 14.5 µM (inactive) | 15.2 µM (inactive) | > 100 µM (inactive) | > 10 µM (inactive) | 23.1 µM (inactive) | 13.4 µM (inactive)
5 | O=C1/C(=C2\SCC(=O)N2c2ccccc2)SC(=S)N1c1ccccc1 | 27.8 µM (inactive) | 32.7 µM (inactive) | 46.7 µM (inactive) | 67 µM (inactive) | > 100 µM (inactive) | 28.6 µM (inactive) | 50.9 µM (inactive) | 27.3 µM (inactive) | 37.2 µM (inactive) | 34.5 µM (inactive) | 26.2 µM (inactive) | 43 | 23.8 µM (inactive) | 56.1 µM (inactive) | 25.6 µM (inactive) | 23.6 µM (inactive) | 17.1 µM (inactive) | 17.7 µM (inactive) | 28.2 µM (inactive)
6 | CN(C)CCNC(=O)c1cccc2c(NCCN(C)C)c3ccccc3nc12 | 2.39 µM (inactive) | 1.55 µM (inactive) | 3.48 µM (inactive) | 1.92 µM (inactive) | 2.89 µM (inactive) | 2.42 µM (inactive) | 3.24 µM (inactive) | 5.28 µM (inactive) | 2 µM (inactive) | 2.66 µM (inactive) | 1.76 µM (inactive) | 3.63 | 2.49 µM (inactive) | 1.61 µM (inactive) | 1.73 µM (inactive) | 7.4 µM (inactive) | 2.68 µM (inactive) | 1 µM (active) | 1.91 µM (inactive)
7 | O=C(O[C@H](/C=C/c1ccccc1)P1(=O)N(Cc2ccccc2)[C@@H]2CCCC[C@H]2N1Cc1ccccc1)c1ccccc1 | 3.68 µM (inactive) | 3.41 µM (inactive) | 1.86 µM (inactive) | 2.17 µM (inactive) | 4.17 µM (inactive) | 3.39 µM (inactive) | 6.5 µM (inactive) | 2.27 µM (inactive) | 2.74 µM (inactive) | 6.93 µM (inactive) | 3.94 µM (inactive) | 2.91 | 1.79 µM (inactive) | 3.45 µM (inactive) | 3.07 µM (inactive) | 5.41 µM (inactive) | 3.37 µM (inactive) |  | 5.9 µM (inactive)
8 | C=CC(Cl)(CBr)CCC(Br)C(C)(C)Cl (stereo unspecified) | 17.5 µM (inactive) |  | 13.1 µM (inactive) | 15.9 µM (inactive) | 17.3 µM (inactive) | 17.5 µM (inactive) | 16.7 µM (inactive) | 19.2 µM (inactive) | 1.89 µM (inactive) | 35.4 µM (inactive) | 16.5 µM (inactive) | 18.3 | 16.6 µM (inactive) | 15.3 µM (inactive) | 21.3 µM (inactive) | 41.9 µM (inactive) | 13 µM (inactive) | 3.23 µM (inactive) | 14.8 µM (inactive)
9 | Nc1ncnc2c1ncn2CCCCC(=O)O | > 100 µM (inactive) | > 100 µM (inactive) | > 100 µM (inactive) | > 100 µM (inactive) | > 100 µM (inactive) | > 100 µM (inactive) | > 100 µM (inactive) | > 100 µM (inactive) |  | > 100 µM (inactive) | > 100 µM (inactive) | > 100 | > 100 µM (inactive) | > 100 µM (inactive) | > 100 µM (inactive) | > 100 µM (inactive) | > 100 µM (inactive) | > 100 µM (inactive) | > 100 µM (inactive)
10 | CC(C)=CCC[C@]1(C)CC[C@]2(C)C3CCC(=C(C)C)[C@@H](CCCO)[C@]3(C)CC[C@@]2(C)C1 (stereo partly specified) | 47.1 µM (inactive) |  | > 100 µM (inactive) | > 100 µM (inactive) | 59.4 µM (inactive) | 35.1 µM (inactive) | > 100 µM (inactive) | 18.8 µM (inactive) | 36.9 µM (inactive) | > 100 µM (inactive) | 83 µM (inactive) | 34 | > 100 µM (inactive) | 40.2 µM (inactive) | 54.5 µM (inactive) | > 100 µM (inactive) | 18.8 µM (inactive) | 39.2 µM (inactive) | 25.5 µM (inactive)
11 | CC1Cc2c(Br)nc(N)nc2NC1=O (stereo unspecified) | > 100 µM (inactive) | > 100 µM (inactive) | > 100 µM (inactive) | > 100 µM (inactive) | > 100 µM (inactive) | > 100 µM (inactive) | > 100 µM (inactive) | > 100 µM (inactive) |  | > 100 µM (inactive) | > 100 µM (inactive) | > 100 | > 100 µM (inactive) | > 100 µM (inactive) | > 100 µM (inactive) | > 100 µM (inactive) | > 100 µM (inactive) | > 100 µM (inactive) | > 100 µM (inactive)
12 | O=C(Cc1nc2ccc(C(=O)c3ccccc3)cc2nc1O)C(=O)Nc1ccccc1[N+](=O)[O-] | > 100 µM (inactive) | 67.9 µM (inactive) | 46 µM (inactive) |  | > 100 µM (inactive) | 51.1 µM (inactive) |  | 91.2 µM (inactive) | 50.9 µM (inactive) | 47.8 µM (inactive) | 67.3 µM (inactive) | 46.3 | 32.4 µM (inactive) | 47.1 µM (inactive) | > 100 µM (inactive) | > 100 µM (inactive) | 40.8 µM (inactive) |  | 37.2 µM (inactive)
13 | O=c1ccc2c(Cl)sc(Cl)c2[nH]1 | > 100 µM (inactive) | > 100 µM (inactive) |  |  | > 100 µM (inactive) | > 100 µM (inactive) | > 100 µM (inactive) | > 100 µM (inactive) | > 100 µM (inactive) | 35.2 µM (inactive) | > 100 µM (inactive) | > 100 | > 100 µM (inactive) | > 100 µM (inactive) | > 100 µM (inactive) | > 100 µM (inactive) | > 100 µM (inactive) | > 100 µM (inactive) | > 100 µM (inactive)
14 | c1ccc2c[n+](CCCCCCCCCC[n+]3ccc4ccccc4c3)ccc2c1 | > 4.35 µM (inactive) | > 10 µM (inactive) | 2.66 µM (inactive) | 4.76 µM (inactive) | > 5.09 µM (inactive) | > 7.52 µM (inactive) | > 10 µM (inactive) | > 10 µM (inactive) | > 10 µM (inactive) | 9.91 µM (inactive) | > 10 µM (inactive) | > 10 | > 10 µM (inactive) | > 5.37 µM (inactive) | 0.92 µM (active) | > 10 µM (inactive) | > 10 µM (inactive) |  | > 10 µM (inactive)
15 | CN(C)CCC(C#N)(c1ccccc1)c1ccccc1 | > 100 µM (inactive) |  | 24.7 µM (inactive) | 45.2 µM (inactive) | 79.6 µM (inactive) | 87.3 µM (inactive) | > 100 µM (inactive) | > 100 µM (inactive) |  | 93.5 µM (inactive) | > 100 µM (inactive) | > 100 | > 100 µM (inactive) | 33.7 µM (inactive) | 72.4 µM (inactive) | > 100 µM (inactive) | 55.1 µM (inactive) | 0.102 µM (active) | 17.5 µM (inactive)

— ChEMBL document CHEMBL1201862, “PubChem BioAssay data set” (2004)
